Assay results reported in PubChem BioAssay AID1963858 (Molecular Pharmacology Branch, DTP, NCI, 2024).

System: HOP-62 multicell spheroids with HUVEC/MSC, viability
Assay: Anticancer human tumor HOP-62 cell line growth inhibition [KRAS2];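 further: viability read after a week of compound exposure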;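 on viability, T/C: 100% = DMSO vehicle-treated spheroids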
Settings: for IC50: curve of first compound; for viability, T/C: stronger effect = lower value
Procedure, shortened: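 KRAS-mutant tumor cells were grown as spheroids with HUVEC endothelial cells and human MSCs as stroma. Targeted agents were tested alone and with KRAS pathway inhibitors. Doses started at or near clinical Cmax, or 10 microM, descending half-log.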

[1] = second compound 0.1 µM, first compound 0.0316 µM
[2] = second compound 0.1 µM, first compound 0.1 µM
[3] = second compound 0.1 µM, first compound 0.316 µM
[4] = second compound 0.1 µM, first compound 1 µM
[5] = second compound 0.1 µM, first compound 3.16 µM
[6] = second compound 0.1 µM, first compound 10 µM
[7] = second compound 0.316 µM, first compound 0.0316 µM
[8] = second compound 0.316 µM, first compound 0.1 µM
[9] = second compound 0.316 µM, first compound 0.316 µM
[10] = second compound 0.316 µM, first compound 1 µM
[11] = second compound 0.316 µM, first compound 3.16 µM
[12] = second compound 0.316 µM, first compound 10 µM
[13] = second compound 1 µM, first compound 0.0316 µM
[14] = second compound 1 µM, first compound 0.1 µM
[15] = second compound 1 µM, first compound 0.316 µM
[16] = second compound 1 µM, first compound 1 µM
[17] = second compound 1 µM, first compound 3.16 µM
[18] = second compound 1 µM, first compound 10 µM
[19] = second compound 3.16 µM, first compound 0.0316 µM
[20] = second compound 3.16 µM, first compound 0.1 µM
[21] = second compound 3.16 µM, first compound 0.316 µM
[22] = second compound 3.16 µM, first compound 1 µM
[23] = second compound 3.16 µM, first compound 3.16 µM
[24] = second compound 3.16 µM, first compound 10 µM
[25] = second compound 10 µM, first compound 0.0316 µM
[26] = second compound 10 µM, first compound 0.1 µM
[27] = second compound 10 µM, first compound 0.316 µM
[28] = second compound 10 µM, first compound 1 µM
[29] = second compound 10 µM, first compound 3.16 µM
[30] = second compound 10 µM, first compound 10 µM

Q: Which results are given for `O=C(c1cc(Cc2n[nH]c(=O)c3ccccc23)ccc1F)N1CCN(C(=O)C2CC2)CC1` + CC1OCC2(CCN(c3cnc(Sc4ccnc(N)c4Cl)c(N)n3)CC2)C1N?
A: IC50 (second compound 0.1 µM): 6460 nM; IC50 (second compound 0.316 µM): 5420 nM; IC50 (second compound 1 µM): 2280 nM; IC50 (second compound 3.16 µM): < 31.6 nM; IC50 (second compound 10 µM): < 31.6 nM; viability, T/C [1]: 90%; viability, T/C [2]: 84.3%; viability, T/C [3]: 80.8%; viability, T/C [4]: 85.4%; viability, T/C [5]: 66.8%; viability, T/C [6]: 39.8%; viability, T/C [7]: 84.2%; viability, T/C [8]: 83.7%; viability, T/C [9]: 78.6%; viability, T/C [10]: 69.5%; viability, T/C [11]: 57.6%; viability, T/C [12]: 41.1%; viability, T/C [13]: 101%; viability, T/C [14]: 70.1%; viability, T/C [15]: 63.7%; viability, T/C [16]: 65.5%; viability, T/C [17]: 51.2%; viability, T/C [18]: 34.5%; viability, T/C [19]: 44.2%; viability, T/C [20]: 43%; viability, T/C [21]: 40.3%; viability, T/C [22]: 44.1%; viability, T/C [23]: 37%; viability, T/C [24]: 26.1%; viability, T/C [25]: 37.1%; viability, T/C [26]: 40.5%; viability, T/C [27]: 36.8%; viability, T/C [28]: 43.2%; viability, T/C [29]: 32.7%; viability, T/C [30]: 28%

Q: For `CC1OCC2(CCN(c3cnc(Sc4ccnc(N)c4Cl)c(N)n3)CC2)C1N` (stereo not given) + C=CC(=O)N1CCN(c2nc(OCC3CCCN3C)nc3c2CCN(c2cccc4cccc(C)c24)C3)CC1CC#N, which IC50 (second compound 0.0316 µM) is on record?
A: 69.7 nM

Q: What about the IC50 (second compound 0.1 µM) of the same molecule?
A: 36.8 nM

Q: And the IC50 (second compound 0.316 µM)?
A: < 31.6 nM

Q: What about the IC50 (second compound 1 µM) of the same molecule?
A: < 31.6 nM

Q: And the IC50 (second compound 3.16 µM)?
A: < 31.6 nM

Q: What about the viability, T/C (second compound 0.0316 µM, first compound 0.0316 µM) of the same molecule?
A: 54.3%

Q: What about the viability, T/C (second compound 0.0316 µM, first compound 0.1 µM) of the same molecule?
A: 49.1%

Q: And the viability, T/C (second compound 0.0316 µM, first compound 0.316 µM)?
A: 27%

Q: And the viability, T/C (second compound 0.0316 µM, first compound 1 µM)?
A: 19.5%

Q: What about the viability, T/C (second compound 0.0316 µM, first compound 3.16 µM) of the same molecule?
A: 11.9%

Q: What about the viability, T/C (second compound 0.0316 µM, first compound 10 µM) of the same molecule?
A: 12.7%

Q: What about the viability, T/C [1] of the same molecule?
A: 53.5%

Q: And the viability, T/C [2]?
A: 29.1%

Q: And the viability, T/C [3]?
A: 19.9%

Q: What about the viability, T/C [4] of the same molecule?
A: 12.8%

Q: What about the viability, T/C [5] of the same molecule?
A: 11.5%

Q: What about the viability, T/C [6] of the same molecule?
A: 12.2%

Q: And the viability, T/C [7]?
A: 40%

Q: What about the viability, T/C [8] of the same molecule?
A: 30.7%

Q: What about the viability, T/C [9] of the same molecule?
A: 13.9%

Q: And the viability, T/C [10]?
A: 10.5%

Q: What about the viability, T/C [11] of the same molecule?
A: 10.2%

Q: And the viability, T/C [12]?
A: 10.6%

Q: What about the viability, T/C [13] of the same molecule?
A: 24%

Q: And the viability, T/C [14]?
A: 16%

Q: And the viability, T/C [15]?
A: 11.8%

Q: What about the viability, T/C [16] of the same molecule?
A: 8.98%

Q: And the viability, T/C [17]?
A: 7.63%

Q: What about the viability, T/C [18] of the same molecule?
A: 7.61%

Q: And the viability, T/C [19]?
A: 4.76%

Q: What about the viability, T/C [20] of the same molecule?
A: 1.76%

Q: And the viability, T/C [21]?
A: 1.12%

Q: What about the viability, T/C [22] of the same molecule?
A: 0.88%

Q: What about the viability, T/C [23] of the same molecule?
A: 0.72%

Q: What about the viability, T/C [24] of the same molecule?
A: 0.51%

Q: Which results are given for `COc1cc(Nc2ncc3c(n2)-c2ccc(Cl)cc2C(c2c(F)cccc2OC)=NC3)ccc1C(=O)O` + C=CC(=O)N1CCN(c2nc(=O)n(-c3c(C)ccnc3C(C)C)c3nc(-c4c(O)cccc4F)c(F)cc23)C(C)C1?
A: IC50 (second compound 0.1 µM): < 31.6 nM; IC50 (second compound 0.316 µM): < 31.6 nM; IC50 (second compound 1 µM): < 31.6 nM; IC50 (second compound 3.16 µM): < 31.6 nM; IC50 (second compound 10 µM): < 31.6 nM; viability, T/C [1]: 35.3%; viability, T/C [2]: 29.2%; viability, T/C [3]: 23.2%; viability, T/C [4]: 23.4%; viability, T/C [5]: 23.3%; viability, T/C [6]: 16.6%; viability, T/C [7]: 42.6%; viability, T/C [8]: 31.5%; viability, T/C [9]: 31.8%; viability, T/C [10]: 32.6%; viability, T/C [11]: 21.8%; viability, T/C [12]: 20%; viability, T/C [13]: 27.6%; viability, T/C [14]: 38.6%; viability, T/C [15]: 35.4%; viability, T/C [16]: 31.6%; viability, T/C [17]: 27.7%; viability, T/C [18]: 21.9%; viability, T/C [19]: 37.6%; viability, T/C [20]: 36.7%; viability, T/C [21]: 34%; viability, T/C [22]: 33.7%; viability, T/C [23]: 28.7%; viability, T/C [24]: 22%; viability, T/C [25]: 39.2%; viability, T/C [26]: 32.3%; viability, T/C [27]: 31.9%; viability, T/C [28]: 33%; viability, T/C [29]: 33.4%; viability, T/C [30]: 25.5%
